# Laboratory results: PMC6384574, “Colistin Use in Patients with Chronic Kidney Disease: Are We Underdosing Patients?” (Molecules, 2019)
# Positions of bridges follow the written chain, without caps; N, C: chain ends. Non-standard residues stand in square brackets, D forms with d. Residues, ends and D or L forms follow the SMILES beside them. *: point of attachment. X1 = CC[C@H](C)CCCCC(=O)*; Dab = NCC[C@H](N)C(=O)O
# What was measured:
# [1] = Worsened renal function (nephrotoxicity) at end of treatment, RIFLE criteria; details: multivariate logistic regression
# Description: (§2) Patient data included demographic information, SOFA score [31], Charlson comorbidity index [32], CMS treatment (indication, daily and total cumulative dose measured in millions of IU and treatment duration). GFR at baseline and at EOT was calculated using the abbreviated Modification of Diet in Renal Disease equation (MDRD-4) [33]. WRF was defined as a decrease in GFR ≥25% and was classified according to the Risk, Injury, Failure, Loss of kidney function, and End-stage kidney disease (RIFLE) criteria [34]. Patients with WRF were followed up until GFR recovery or until hospital discharge. Information was collected on the concomitant use of other potential nephrotoxic drugs such as aminoglycosides, vancomycin, angiotensin II receptor blockers, angiotensin-converting enzyme (ACE) inhibitors, loop diuretics, intravenous dye, amphotericin B and non-steroidal anti-inflammatory drugs (NSAIDs), as well as the need for vasopressor drugs or discontinuation of CMS due to nephrotoxicity. Combination therapy with other antibiotics with potential activity or synergy with colistin was assessed.
# (§3) Dichotomous data were compared using a χ^2 or Fisher’s exact test. Normally distributed continuous data are expressed as means and standard deviations (SD), and were compared using the t-test. Otherwise, values are presented as means with interquartile range (IQR) and were compared using the Mann-Whitney U-test. The baseline and clinical characteristics of patients receiving different CMS doses were compared using the ANOVA or Kruskal-Wallis test. Multivariate analysis of risk factors for colistin-associated nephrotoxicity was conducted using logistic regression. Univariate analyses were performed separately for each of the risk factor variables to ascertain the odds ratio (OR) and 95% confidence interval (CI). All clinically important covariates and those with p < 0.3 in the univariate analyses were included in the multivariate analysis.
# [2] = Colistin plasma concentration at steady state (Css,avg) by HPLC in CMS-treated patients with CKD; type: in vivo, human
# Description: We conducted a prospective observational study in a cohort of patients with CKD and infections caused by extensively drug-resistant P. aeruginosa treated with intravenous CMS for at least 48 h. The study was carried out at Hospital del Mar, a tertiary care university hospital in Barcelona (Spain), from January 2010 to August 2018. The study was approved by the local ethics committee (Comité Ètic d’Investigació Clínica del Parc de Salut Mar. Approval number 2011/4501/I). Exclusion criteria were age <18 years, pregnancy, and breast-feeding during the study period. A pharmacy-generated alarm system was used to identify patients under CMS treatment. […]
# The dosage regimen and dose adjustments were determined by the treating physician. […]
# Blood samples were obtained just before the next dose on day 3–4 of the treatment. […] Concentrations of CMS and formed colistin in plasma were measured using a validated high-performance liquid chromatography (HPLC) method. The limit of quantification of the HPLC methods for colistin and CMS in plasma were 0.20 and 0.50 mg/L, respectively. As the plasma concentration-time profiles of formed colistin are almost flat, measured colistin concentrations were regarded as Css,avg. The percentage of patients achieving the therapeutic target defined as a Css,avg of 2 mg/L was also analyzed. […] We calculated the expected Css based on the formula of Nation et al..
# [3] = cited from earlier work
# From the text: Colistin use has reemerged in recent years for the treatment of multidrug-resistant Gram-negative infections, which has prompted the performance of a large number of clinical and PK studies of its use in the last decade. However, there is still little pharmacological information in patients at high risk of under- or overdosing, such as those with CKD. […] CMS, the pro-drug, is renally eliminated by glomerular filtration and active tubular secretion. Previ ... || Recent toxicodynamic studies performed in the general population indicate that the risk of nephrotoxicity in patients receiving CMS increases with plasma colistin concentration exceeding 2.5 mg/L [13, 15]. This point, together with the lack of information on the minimum inhibitory concentrations (MIC) at the beginning of CMS treatment, have led to consideration of an average Css,avg of 2 mg/L as a target when initiating therapy. The median Css,avg in this study was 0.9 mg/L, which is far below the above-mentioned recommended 2 mg/L [11] but is also below those reported in previous ... || Blood samples were obtained just before the next dose on day 3–4 of the treatment. […] Concentrations of CMS and formed colistin in plasma were measured using a validated high-performance liquid chromatography (HPLC) method. The limit of quantification of the HPLC methods for colistin and CMS in plasma were 0.20 and 0.50 mg/L, respectively. As the plasma concentration-time profiles of formed colistin are almost flat, measured colistin concentrations were regarded as Cs ...
# [4] = human, in vivo, iv
# [5] = human, in vivo; cited from earlier work
# Description: Recent toxicodynamic studies performed in the general population indicate that the risk of nephrotoxicity in patients receiving CMS increases with plasma colistin concentration exceeding 2.5 mg/L [13, 15]. This point, together with the lack of information on the minimum inhibitory concentrations (MIC) at the beginning of CMS treatment, have led to consideration of an average Css,avg of 2 mg/L as a target when initiating therapy. […] Rates of nephrotoxicity in patients treated with CMS range from 20% to 60% according to recent studies using standardized criteria to evaluate nephrotoxicity. Even though WRF was reversible in more than 50% of patients, the diagnosis and management of this complication during CMS treatment is a challenge in daily clinical practice, since nephrotoxicity is potentially related to worse clinical outcomes. In two previous studies by our group, the pre ...
# [6] = 30-day all-cause mortality in CMS-treated CKD patients; type: in vivo, human
# Description: (§1) CKD was defined as kidney damage or GFR <60 mL/min/1.73 m^2 for 3 months or more, irrespective of cause. Infections were defined according to the Centers for Disease Control and Prevention. Clinical failure was defined as a lack of improvement in patients or in at least one of the initial symptoms, worsening or death. Clinical cure was defined as either the absence of symptoms or as a consistent improvement in the signs and symptoms of the infection. Thirty-day all-cause mortality was considered as death from any cause during the 30 days following EOT. Combined antibiotic treatment consisted of CMS plus meropenem or CMS plus amikacin.
# [7] = in vivo
# Description: as §2, §3
# [8] = system: extensively drug-resistant Pseudomonas aeruginosa; assay: Clinical cure / clinical failure in CKD patients treated with intravenous CMS; type: in vivo
# Description: We conducted a prospective observational study in a cohort of patients with CKD and infections caused by extensively drug-resistant P. aeruginosa treated with intravenous CMS for at least 48 h. The study was carried out at Hospital del Mar, a tertiary care university hospital in Barcelona (Spain), from January 2010 to August 2018. The study was approved by the local ethics committee (Comité Ètic d’Investigació Clínica del Parc de Salut Mar. Approval number 2011/4501/I). Exclusion criteria were age <18 years, pregnancy, and breast-feeding during the study period. A pharmacy-generated alarm system was used to identify patients under CMS treatment. The study investigators performed the assessment from the first day of the treatment and informed consent was obtained from all participants or their legal representatives.
# as §1
# The dosage regimen and dose adjustments were determined by the treating physician. Since this study was performed over more than 8 years, colistin daily doses varied during this time. From 2010 to 2014, dose adjustments were made according to the package insert’s recommended dosing as follows: GFR ≥76 mL/min/1.73 m^2, 4–6 million IU daily in three doses; GFR 40–75 mL/min/1.73 m^2, 2–3 million IU daily in two doses; GFR 25–40 mL/min/1.73 m^2, 1.5–2 million IU daily divided in one or two doses and; GFR <25 mL/min/1.73 m^2, 0.6–1 million IU daily every 36 h. In 2014, a new protocol based on our previous experience was implemented in our center and CMS was adjusted as follows: GFR ≥90 mL/min/1.73 m^2, 9 million IU daily in three doses; GFR 50–89 mL/min/1.73 m^2, 3 million IU every 12 h, GFR 10–49 mL/min/1.73 m^2, 3 million IU per day; GFR ≤10 mL/min/1.73 m^2, 2 million IU/day. However, the final dose was chosen by the treating physician. CMS (colistimethate formulation for intravenous use, GES Genéricos Españoles®, Las Rozas, Spain was diluted in 100 mL of physiological saline before intravenous administration over 30 min. Each vial contained 1 million IU of CMS (equivalent to 80 mg CMS).
# [9] = Garonzik et al. pharmacokinetic study, ref [8]
# [10] = diagnosis SSTI (skin and soft tissue infection)
# [11] = diagnosis UTI (urinary tract infection)
compound,measurement,setting,value
CC[C@H](C)CCCCC(=O)N[C@@H](CCN)C(=O)N[C@H](C(=O)N[C@@H](CCN)C(=O)N[C@H]1CCNC(=O)[C@H]([C@@H](C)O)NC(=O)[C@H](CCN)NC(=O)[C@H](CCN)NC(=O)[C@H](CC(C)C)NC(=O)[C@@H](CC(C)C)NC(=O)[C@H](CCN)NC1=O)[C@@H](C)O [colistin] (X1-[Dab]T[Dab][Dab][Dab][dL]L[Dab][Dab]T; lactam 4-C),OR of Css as independent risk factor for colistin-associated nephrotoxicity at the end of treatment,"[1]; 95% CI 1.02–10.1, p = 0.047",3.21
same,"Css,avg (colistin plasma concentration at steady-state), median (interquartile range)","[2]; all CKD patients n = 59, iv CMS, median daily dose 3 million IU, blood just before next dose on day 3–4, plasma, HPLC",900 ng/mL
same,"Css,avg","[2]; patients with clinical cure (n = 43), unit printed in Table 1 only",800 ng/mL
same,"Colistin Css,avg, median",[3]; [9],2360 ng/mL
same,"Colistin Css,avg, range",[3]; [9],480 to 9380 ng/mL
same,Colistin plasma concentration in previous studies in the general population,"[3]; IQR 0.11–5.99, ref [7],[13]",1.06
same,Half-life,"[3]; assumed for steady state on day 3–4, ref [10]",approximately 14 h
colistimethate sodium [CMS],OR of DOT (days of CMS treatment) as risk factor for colistin-associated nephrotoxicity at the end of treatment,[1]; p = 0.069,1.11
same,Neurotoxicity,[4],none of the patients in this cohort developed neurotoxicity
same,Rates of nephrotoxicity in patients treated with CMS,[5],20-60%
same,30-day all-cause mortality,[6]; patients with clinical failure (n = 16),13 (81.3) n (%)
same,30-day all-cause mortality,[6]; patients without nephrotoxicity at EOT (n = 39),10 (25.64) n (%)
same,CMS dose renally excreted in the urine,"[3]; during the first 24 h after dosing, ref [21]",about 60%
same,Urinary excretion of CMS after intravenous administration,"[3]; patients, within the first 6 h, ref [22]",rapid urinary excretion
same,"GFR at EOT, median (interquartile range)",[7],30.1 (6.51–81.4) mL/min/1.73 m^2
same,Incidence of WRF at EOT,[7],33.9%
same,Recovery of baseline renal function,[7],10 (52.6) n (%)
same,WRF (worsened renal function) at the end of treatment,[7],20 (33.9) n (%)
same,"WRF at EOT, RIFLE class F (Failure)",[7],3 (15) n (%)
same,"WRF at EOT, RIFLE class I (Injury)",[7],10 (50) n (%)
same,"WRF at EOT, RIFLE class R (Risk)",[7],3 (15) n (%)
same,"WRF reversible, patients",[7],52.6%
same,"Clinical cure, patients","[8]; 43 of 59 CKD patients, iv CMS, XDR P. aeruginosa infections",72.9%
same,Patients with clinical cure,[8]; [10],3 (60) n (%)
same,Patients with clinical failure,[8]; [10],2 (40) n (%)
same,Patients with clinical cure,[8]; [11],15 (93.6) n (%)
same,Patients with clinical failure,[8]; [11],1 (6.25) n (%)
same,Patients with clinical cure,[8]; diagnosis bacteremia,3 (100) n (%)
same,Patients with clinical failure,[8]; diagnosis bacteremia,0 (0) n (%)
same,Patients with clinical cure,[8]; diagnosis others,4 (57.1) n (%)
same,Patients with clinical failure,[8]; diagnosis others,3 (42.9) n (%)
same,Patients with clinical cure,[8]; diagnosis pneumonia,7 (50) n (%)
same,Patients with clinical failure,[8]; diagnosis pneumonia,7 (50) n (%)
same,Patients with clinical cure,[8]; diagnosis tracheobronchitis,11 (78.6) n (%)
same,Patients with clinical failure,[8]; diagnosis tracheobronchitis,3 (21.43) n (%)
